Experiment in all cases: inhibition of tumour cell growth, NCI panel, 48 h
Assay [1] concerns DMS 273 small cell lung.
For assay [2], the system named is RXF-631 renal.
The test system of assay [3] is IGROV1 ovarian.
For assay [4], the system named is SNB-78 CNS.
Assay [5] deals with DLD-1 colon.
Assay [6] has as its system LXFL 529 NSCLC.
Assay [7] has as its system M19-MEL melanoma.
Assay [8] relates to XF 498 CNS.
Assay [9] deals with DMS 114 small cell lung.
Assay [10] has as its system HOP-18 NSCLC.
Assay [11] concerns LOX IMVI melanoma.
Assay [12] has as its system KM20L2 colon.
Assay [13] has as its system RXF 393 renal.

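Cultured in 96-well plates, cells were exposed to test compound for 48 hours across five concentrations. TGI denotes the concentration required for complete inhibition of growth.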 Bounds are passed on as bounds.

As for `O=S1(=O)OCCOS(=O)(=O)C1I`, the TGI in assay [1], in [2], in assay [3], in assay [4], in assay [5] and in assay [6] was above 100 µM throughout. Also, the TGI in assay [7], in [8] and in [9] was above 100 µM in each case.
`C/C(=N\NS(=O)(=O)c1ccc(C)cc1)C(CN1CCOCC1)C(c1ccccc1)c1c(O)c2ccccc2oc1=O` (stereo not drawn): the TGI in assay [10], in assay [2], in [11], in assay [3], in assay [12] and in [4] was above 100 µM each time. The TGI in assay [13], in assay [5], in assay [6], in assay [7] and in assay [8] was above 100 µM each time.
In the case of `COC(=O)c1ccc(OCc2ccc3nc(OC)c(OC)nc3c2)cc1`, the TGI in [1], in assay [10], in assay [11], in [4], in assay [5] and in assay [7] was above 100 µM in each case. Besides, the TGI in [8] and in assay [9] was above 100 µM in each case.
For the compound `CCN1CCC(O)(c2ccc(C)cc2)C(C(=O)c2ccc(C)cc2)C1` (stereo not drawn), the TGI in assay [1] was 34.7 µM; in [10] it was 36.9 µM; in [11] it was above 61.2 µM; in assay [3] it was above 58.9 µM; in assay [12], 17.7 µM; in [4], above 76.8 µM. Besides, the TGI in [5] was 33.4 µM; in [6] it was 31.3 µM; in [7], above 61.2 µM; in [8], 33.1 µM.
Regarding `COc1ccc2c(c1)c(=O)c1ccccc1n2/C=C/C(=O)O`, the TGI was above 67 µM in assay [1]; above 100 µM in [10]; above 65.6 µM in assay [11]; above 100 µM in assay [3]; above 100 µM in assay [12]; above 100 µM in assay [4]. Moreover, the TGI in [13] is above 100 µM; in assay [5] it was above 66.2 µM; in assay [6] it was above 100 µM; in assay [8] it was above 100 µM; in assay [9], above 100 µM.
On to `CN(C)c1ccc(-c2cc(=O)c3cc4c(cc3[nH]2)OCO4)cc1`, for which the TGI in assay [1], in assay [2], in [11], in assay [3], in assay [12] and in [13] was above 100 µM throughout. Further, the TGI in [5], in assay [6], in assay [7], in [8] and in assay [9] was above 100 µM each time.
Take `COc1ccc(N2C(=O)C3c4[nH]c5ccc(OC)cc5c4C4CCC(C(C)(C)C)CC4C3C2=O)cc1` (stereo not drawn): the TGI in assay [1] is 40.1 µM; in assay [10], above 100 µM; in assay [11], above 100 µM; in assay [3], above 100 µM; in [12], above 100 µM; in assay [4], 45.3 µM. Moreover, the TGI is 58.1 µM in assay [13]; above 100 µM in assay [5]; 65.2 µM in assay [6]; above 100 µM in assay [7]; above 100 µM in [8]; above 100 µM in assay [9].
Turning to `COc1cccc2c1CCc1ccccc1CC2=O`, the TGI in assay [1], in assay [10], in assay [11], in [3], in [12] and in assay [13] was above 100 µM throughout. The TGI in [5], in assay [6], in assay [7], in assay [8] and in assay [9] was above 100 µM each time.
As to `COc1c(Cl)c2c(c(OC)c1OC)-c1ccc(OC)c(=O)c(Cl)c1C(NC(C)=O)CC2` (stereo not drawn), the TGI in assay [1] is above 100 µM; in assay [10], above 100 µM; in assay [2] it was 6.32 µM; in [11], 5.87 µM; in [4], above 100 µM; in assay [5], above 100 µM. The TGI was above 100 µM in assay [6], above 28.4 µM in assay [7], 12.9 µM in assay [8] and 1.11 µM in [9].

The values above are taken from PubChem BioAssay (NCI).
